Assay results taken from the supplement of paper PMC11061612.

Columns and labels:
Test in all cases: combination Emax (second highest fraction inhibited in the dose matrix, 72 h); higher = more inhibition; extreme values may be limits of the assay
[1] = tested on: CAL-29 (Bladder Carcinoma)
Outline: (§1)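 After 24 hours at 37°C and 5% CO2 in 1536-well plates, cells in DMEM/F12 or RPMI plus 10% FBS received two-drug dose matrices for 72 hours. Viability came from CellTiter-Glo 2.0 luminescence and was scaled as inhibition, anchored at 0 by vehicle wells and at 1 by blank wells. Combination Emax is taken as the second-highest inhibition in the matrix, and Bliss excess as the observed combination effect less EA + EB − EA·EB, with EA and EB the single-agent effects.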

[2] = tested on: MDST8 (Colorectal Carcinoma)
Outline: as §1

IGR-37 (Melanoma) = tested on: IGR-37 (Melanoma)
Outline: as §1

NCI-H2591 (Mesothelioma) = tested on: NCI-H2591 (Mesothelioma)
Outline: as §1

Hs-445 (Non-Cancerous) = tested on: Hs-445 (Non-Cancerous)
Outline: as §1

[3] = tested on: PANC-10-05 (Pancreatic Carcinoma)
Outline: as §1

[4] = tested on: TT (Thyroid Gland Carcinoma)
Outline: as §1

8-MG-BA (Glioblastoma) = tested on: 8-MG-BA (Glioblastoma)
Outline: as §1

[5] = tested on: NCI-H1581 (Non-Small Cell Lung Carcinoma)
Outline: as §1

[6] = tested on: A3-KAW (B-Cell Non-Hodgkin's Lymphoma)
Outline: as §1

A498 (Kidney Carcinoma) = tested on: A498 (Kidney Carcinoma)
Outline: as §1

[7] = tested on: COLO-824 (Breast Carcinoma)
Outline: as §1

[8] = tested on: CCK-81 (Colorectal Carcinoma)
Outline: as §1

[9] = tested on: SK-MG-1 (Low Grade Glioma)
Outline: as §1

GI-ME-N (Neuroblastoma) = tested on: GI-ME-N (Neuroblastoma)
Outline: as §1

NY (Osteosarcoma) = tested on: NY (Osteosarcoma)
Outline: as §1

[10] = tested on: VCaP (Prostate Carcinoma)
Outline: as §1

[11] = tested on: NCI-H1666 (Lung Adenocarcinoma)
Outline: as §1

[12] = tested on: JSC-1 (B-Cell Non-Hodgkin's Lymphoma)
Outline: as §1

ARH-77 (Non-Cancerous) = tested on: ARH-77 (Non-Cancerous)
Outline: as §1

Row | Structure (SMILES) | combination Emax [1] | combination Emax [2] | combination Emax (IGR-37 (Melanoma)) | combination Emax (NCI-H2591 (Mesothelioma)) | combination Emax (Hs-445 (Non-Cancerous)) | combination Emax [3] | combination Emax [4] | combination Emax (8-MG-BA (Glioblastoma)) | combination Emax [5] | combination Emax [6] | combination Emax (A498 (Kidney Carcinoma)) | combination Emax [7] | combination Emax [8] | combination Emax [9] | combination Emax (GI-ME-N (Neuroblastoma)) | combination Emax (NY (Osteosarcoma)) | combination Emax [10] | combination Emax [11] | combination Emax [12] | combination Emax (ARH-77 (Non-Cancerous))
1 | CN(C)CCCOc1ccc(-c2ccc3ncc4c(c3c2)n(C2CCOCC2)c(=O)n4C)cn1 [AZD0156] + C=CCn1c(=O)c2cnc(Nc3ccc(N4CCN(C)CC4)cc3)nc2n1-c1cccc(C(C)(C)O)n1 [AZD1775] (first compound max 1 µM, partner max 1 µM) | 0.642 | 0.416 | 0.706 | 0.191 | 0.926 | 0.361 | 0.271 | 0.74 | 0.331 | 0.95 | 0.544 | 0.644 | 0.903 | 0.525 | 0.321 | 0.555 | 0.553 | 0.314 | 0.868 | 0.944
2 | CN(C)CCCOc1ccc(-c2ccc3ncc4c(c3c2)n(C2CCOCC2)c(=O)n4C)cn1 [AZD0156] + CCN(CCO)CCCOc1ccc2c(Nc3cc(CC(=O)Nc4cccc(F)c4)[nH]n3)ncnc2c1 [AZD2811] (first compound max 1 µM, 7x7, partner max 1 µM) | 0.284 | 0.281 | 0.0663 | 0.112 | 0.325 | 0.218 | 0.359 | 0.215 | 0.271 | 0.572 | 0.172 | 0.818 | 0.159 | 0.388 | 0.0704 | 0.0423 | 0.118 | 0.211 | 0.19 | 0.492
3 | CN(C)CCCOc1ccc(-c2ccc3ncc4c(c3c2)n(C2CCOCC2)c(=O)n4C)cn1 [AZD0156] + C[C@@H]1COCCN1C2=NC(=NC(=C2)C3(CC3)[S@](=N)(=O)C)C4=C5C=CNC5=NC=C4 [AZD6738] (first compound max 1 µM, 7x7, partner max 10 µM) | 0.772 | 0.919 | 0.781 | 0.293 | 0.868 | 0.41 | 0.429 | 0.834 | 0.418 | 0.995 | 0.703 | 0.712 | 0.912 | 0.565 | 0.697 | 0.555 | 0.359 | 0.331 | 0.916 | 0.975
4 | CN(C)CCCOc1ccc(-c2ccc3ncc4c(c3c2)n(C2CCOCC2)c(=O)n4C)cn1 [AZD0156] + O=C(c1cc(Cc2n[nH]c(=O)c3ccccc23)ccc1F)N1CCN(C(=O)C2CC2)CC1 [Olaparib] (first compound max 3 µM, partner max 3 µM) | 0.319 | 0.361 | 0.194 | 0.135 | 0.174 | 0.343 | 0.237 | 0.4 | 0.412 | 0.909 | 0.316 | 0.383 | 0.394 | 0.319 | 0.193 | 0.338 | 0.296 | 0.269 | 0.582 | 0.63
5 | C=CCn1c(=O)c2cnc(Nc3ccc(N4CCN(C)CC4)cc3)nc2n1-c1cccc(C(C)(C)O)n1 [AZD1775] + C[C@@H]1COCCN1C2=NC(=NC(=C2)C3(CC3)[S@](=N)(=O)C)C4=C5C=CNC5=NC=C4 [AZD6738] (first compound max 1 µM, partner max 10 µM) | 0.794 | 0.816 | 0.787 | 0.389 | 0.914 | 0.513 | 0.441 |  | 0.771 | 0.992 | 0.682 | 0.851 | 0.944 | 0.702 | 0.548 | 0.665 | 0.602 | 0.49 | 0.905 | 1
6 | CN(CCO)CC[C@H](CSc1ccccc1)Nc1ccc(S(=O)(=O)NC(=O)c2ccc(N3CCC([C@@H](O)c4ccccc4-c4ccc(Cl)cc4)CC3)cc2)cc1S(=O)(=O)C(F)(F)F [AZD4320] + CN(C)CCCOc1ccc(-c2ccc3ncc4c(c3c2)n(C2CCOCC2)c(=O)n4C)cn1 [AZD0156] (first compound max 1 µM, 7x7, partner max 1 µM) | 0.104 | 0.772 | 0.116 | 0.13 | 0.497 | 0.373 | 0.269 | 0.0798 | 0.19 | 0.228 | 0.254 | 1 |  | 0.274 | 0.156 | 0.0862 | 0.19 | 0.141 | 0.116 | 0.793
7 | CN(CCO)CC[C@H](CSc1ccccc1)Nc1ccc(S(=O)(=O)NC(=O)c2ccc(N3CCC([C@@H](O)c4ccccc4-c4ccc(Cl)cc4)CC3)cc2)cc1S(=O)(=O)C(F)(F)F [AZD4320] + C[C@@H](Nc1cc(F)cc(F)c1)c1cc(C(=O)N(C)C)cc2c(=O)cc(N3CCOCC3)oc12 [AZD8186] (first compound max 1 µM, 7x7, partner max 3 µM) | 0.515 |  | 0.341 | 0.214 | 0.97 | 0.383 | 0.803 | 0.316 | 0.287 | 0.761 | 0.911 | 1 | 0.338 | 0.652 | 0.469 | 0.589 | 0.37 | 0.42 | 0.546 | 0.899
8 | COc1nnc2ccc(N3CCC(c4ccc(OCCN5CCN(C)C(=O)[C@H]5C)cc4)CC3)nn12 [AZD5153] + CN(CC[C@H](CSC1=CC=CC=C1)NC2=C(C=C(C=C2)S(=O)(=O)NC(=O)C3=CC=C(C=C3)N4CCC(CC4)[C@H](C5=CC=CC=C5C6=CC=C(C=C6)Cl)O)S(=O)(=O)C(F)(F)F)CCO [AZD4320] (first compound max 1 µM, 7x7, partner max 1 µM) | 0.401 | 0.918 |  | 0.395 | 0.889 |  |  | 0.772 |  | 1 | 0.66 | 1 |  | 0.566 | 0.246 |  |  |  | 0.71 | 0.965
9 | Cc1c2c(nn1C)CSCc1cc(n(C)n1)CSc1cc(c3ccccc3c1)OCCCc1c(C(=O)O)n(C)c3c-2c(Cl)ccc13 [AZD5991] + Cn1cnc2c(F)c(Nc3ccc(Br)cc3Cl)c(C(=O)NOCCO)cc21 [Selumetinib] (first compound max 1 µM, 7x7, partner max 3 µM) | 0.677 | 0.746 | 0.996 | 0.27 | 0.932 | 0.442 | 0.339 | 0.739 | 0.991 | 1 | 0.611 | 0.406 | 0.947 | 0.339 | 0.421 | 0.416 | 0.911 | 0.736 | 1 | 
10 | C[C@@H]1COCCN1c1cc(C2([S@](C)(=N)=O)CC2)nc(-c2ccnc3[nH]ccc23)n1 [AZD6738] + O=C(c1cc(Cc2n[nH]c(=O)c3ccccc23)ccc1F)N1CCN(C(=O)C2CC2)CC1 [Olaparib] (first compound max 10 µM, 7x7, partner max 10 µM) | 0.71 | 0.677 | 0.738 | 0.348 | 0.835 | 0.486 | 0.419 | 0.85 | 0.528 | 0.984 | 0.636 | 0.595 |  | 0.552 | 0.486 | 0.607 | 0.374 | 0.331 | 0.822 | 0.911
11 | CC(=O)c1c(C)c2cnc(Nc3ccc(N4CCNCC4)cn3)nc2n(C2CCCC2)c1=O [Palbociclib] + CN(CC[C@H](CSC1=CC=CC=C1)NC2=C(C=C(C=C2)S(=O)(=O)NC(=O)C3=CC=C(C=C3)N4CCC(CC4)[C@H](C5=CC=CC=C5C6=CC=C(C=C6)Cl)O)S(=O)(=O)C(F)(F)F)CCO [AZD4320] (first compound max 10 µM, 7x7, partner max 1 µM) | 0.172 | 0.781 |  | 0.249 | 0.95 |  |  | 0.337 |  | 0.867 | 0.658 | 1 |  | 0.563 | 0.211 |  |  |  | 0.59 | 0.899
12 | CCc1c2c(nc3ccc(O)cc13)-c1cc3c(c(=O)n1C2)COC(=O)[C@]3(O)CC [SN-38] + O=C(c1cc(Cc2n[nH]c(=O)c3ccccc23)ccc1F)N1CCN(C(=O)C2CC2)CC1 [Olaparib] (first compound max 0.3 µM, 7x7, partner max 10 µM) |  | 0.745 | 0.863 | 0.575 | 1 | 0.76 | 0.892 | 0.986 | 0.722 |  | 0.598 |  | 0.587 | 0.821 | 0.494 | 0.91 | 0.459 | 0.532 | 0.973 | 0.997
13 | C[C@@H](c1ccc2nccn2c1)n1nnc2ncc(-c3cnn(C)c3)nc21 [Savolitinib] + CN(CC[C@H](CSC1=CC=CC=C1)NC2=C(C=C(C=C2)S(=O)(=O)NC(=O)C3=CC=C(C=C3)N4CCC(CC4)[C@H](C5=CC=CC=C5C6=CC=C(C=C6)Cl)O)S(=O)(=O)C(F)(F)F)CCO [AZD4320] (first compound max 1 µM, 7x7, partner max 1 µM) | 0.174 | 0.626 |  | 0.15 | 0.625 |  |  | 0.116 |  | 0.128 | 0.308 | 1 |  | 0.152 | 0.229 |  |  |  | 0.117 | 0.82
